{
  "source": "patent US20150366199A1",
  "about": "“COMPOSITIONS COMPRISING GOUGEROTIN AND AN INSECTICIDE” (priority 2013, published 2015)",
  "key": {"[1]": {"test_system": "two spotted spidermite (Tetranychus urticae)", "assay": "Tetranychus urticae - spray test, OP-resistant", "assay_type": "in vivo", "conditions": "mortality after 6 d", "description": "(§1) Emulsifier: alkylaryl polyglycol ether"}, "[2]": {"test_system": "gram-positive, gram-negative bacteria and tubercule bacillus", "conditions": "cited from earlier work"}, "pin worm": {"test_system": "pin worm", "conditions": "parasites on animals, such as pin worm, cited from earlier work"}, "mites": {"test_system": "mites", "conditions": "cited from earlier work"}, "[3]": {"conditions": "cited from earlier work"}, "[4]": {"test_system": "fall armyworm larvae (Spodoptera frugiperda)", "assay": "Spodoptera frugiperda - spray test", "conditions": "for Efficacy in % after 2d: mortality after 2 d; for Efficacy in % after 6d: mortality after 6 d", "quoted_text": "Solvent: 78.0 parts by weight acetone • 1.5 parts by weight dimethylformamide\nTo produce a suitable preparation of NRRL B-50550, 1 part by weight of NRRL B-50550 75 WP is mixed with the stated amount of solvents and is diluted with water, containing an emulsifier concentration of 1000 ppm, to the desired concentration. Further test concentrations are prepared by dilution with emulsifier containing water.\nMaize (Zea mais) leaf sections are sprayed with a preparation of the active ingredient of the desired concentration. Once dry, the leaf sections are infested with fall armyworm larvae (Spodoptera frugiperda).\nAfter the specified period of time, mortality in % is determined 100% means all caterpillars have been killed and 0% means none of the caterpillars have been killed. The mortality values determined thus are recalculated using the Colby-formula."}, "[5]": {"test_system": "green peach aphid (Myzus persicae)", "assay": "Myzus persicae - spray test (Chinese cabbage leaf-disks, Example 6)", "assay_type": "in vivo", "conditions": "for Efficacy in % after 6d: mortality after 6 d; for Efficacy in % after 1d: mortality after 1 d", "description": "as §1"}, "[6]": {"test_system": "mustard beetle larvae (Phaedon cochleariae)", "assay": "Phaedon cochleariae - spray test", "conditions": "for Efficacy in % after 6d: mortality after 6 d; for Efficacy in % after 2d: mortality after 2 d", "quoted_text": "The expected efficacy of a given combination of two compounds is calculated as follows (see Colby, S. R., “Calculating Synergistic and antagonistic Responses of Herbicide Combinations”, Weeds 15, pp. 20-22, 1967):\nSolvent: 78.0 parts by weight of acetone • • 1.5 parts by weight of dimethylformamide\nTo produce a suitable preparation of a NRRL B-50550, 1 part by weight of NRRL B-50550 75 WP was mixed with the stated amount of solvents and was diluted with water, containing an emulsifier concentration of 1000 ppm, to the desired concentration. Further test concentrations are prepared by dilution with emulsifier containing water.\nChinese cabbage (Brassica pekinensis) leaf-disks are sprayed with a preparation of the active ingredient of the desired concentration. Once dry, the leaf disks are infested with mustard beetle larvae (Phaedon cochleariae).\nAfter the specified period of time, mortality in % is determined 100% means all beetle larvae have been killed and 0% means none of the beetle larvae have been killed. The mortality values determined thus are recalculated using the Colby-formula."}, "[7]": {"test_system": "green peach aphid (Myzus persicae)", "assay": "Myzus persicae - spray test (pepper leaves, Example 8)", "assay_type": "in vivo", "conditions": "0.5 ppm"}},
  "note": "Where two headings read alike, the source gives them in different places.",
  "data": [
    {"compound": "O=[N+]([O-])NC1=NCCN1Cc1ccc(Cl)nc1", "note": "[Imidacloprid]", "values": [
      {"measurement": "Efficacy in % after 6d", "setting": "[1]; 2 ppm", "result": 0, "unit": "%"}
    ]},
    {"compound": "CNCC(=O)NC(CO)C(=O)NC1C(C(N)=O)OC(n2ccc(N)nc2=O)C(O)C1O", "note": "[Gougerotin, 1-(4-Amino-2-oxo-1(2H)-pyrimidinyl)-1,4-dideoxy-4-[[N—(N-methylglycyl)-D-seryl]amino]-b-D-glucopyranuronamide]", "values": [
      {"measurement": "antibacterial activity", "setting": "[2]", "result": "weak"},
      {"measurement": "parasiticidal activity", "setting": "pin worm", "result": "inhibitory effect on the ovulation of pin worms"},
      {"measurement": "parasiticidal activity", "setting": "pin worm; listed as gougerotin", "result": "parasiticidal action"},
      {"measurement": "acaricidal (miticidal) effect", "setting": "mites", "result": "acaricidal (miticidal) effect"},
      {"measurement": "water solubility", "setting": "[3]", "result": "water soluble"}
    ]},
    {"compound": "Spinetoram", "values": [
      {"measurement": "Efficacy in % after 2d", "setting": "[4]; 0.64 ppm", "result": 0, "unit": "%"}
    ]},
    {"compound": "CC1(C)C(C=C(Cl)Cl)C1C(=O)OC(C#N)c1ccc(F)c(Oc2ccccc2)c1", "note": "(stereo not drawn) [β-Cyfluthrin, beta-Cyfluthrin]", "values": [
      {"measurement": "Efficacy in % after 6d", "setting": "[5]; 1.6 ppm", "result": 0, "unit": "%"},
      {"measurement": "Efficacy in % after 6d", "setting": "[6]; 1.6 ppm", "result": 0, "unit": "%"},
      {"measurement": "Efficacy in % after 6d", "setting": "[4]; 1.6 ppm", "result": 0, "unit": "%"}
    ]},
    {"compound": "N#C/N=C1\\SCCN1Cc1ccc(Cl)nc1", "note": "[Thiacloprid]", "values": [
      {"measurement": "Efficacy in % after 2d", "setting": "[7]; mortality after 2 d", "result": 40, "unit": "%"},
      {"measurement": "Efficacy in % after 3d", "setting": "[7]; mortality after 3 d", "result": 20, "unit": "%"},
      {"measurement": "Efficacy in % after 7d", "setting": "[7]; mortality after 7 d", "result": 10, "unit": "%"}
    ]},
    {"compound": "Cc1cc(F)c(-n2nc(C(F)(F)F)nc2N)cc1[S+]([O-])CC(F)(F)F", "note": "(stereo not drawn) [1-{2-fluoro-4-methyl-5-[(2,2,2-trifluorethyl)sulfinyl]phenyl}-3-(trifluoromethyl)-1H-1,2,4-triazol-5-amine]", "values": [
      {"measurement": "Efficacy in % after 6d", "setting": "[1]; 3.2 ppm", "result": 0, "unit": "%"}
    ]},
    {"compound": "Cc1cc(C(F)(C(F)(F)F)C(F)(F)F)ccc1NC(=O)c1cccc(I)c1C(=O)NC(C)(C)CS(C)(=O)=O", "note": "[Flubendiamide]", "values": [
      {"measurement": "Efficacy in % after 2d", "setting": "[4]; 3.2 ppm", "result": 33, "unit": "%"}
    ]},
    {"compound": "CN/C(=N\\[N+](=O)[O-])NCc1cnc(Cl)s1", "note": "[Clothianidin]", "values": [
      {"measurement": "Efficacy in % after 6d", "setting": "[5]; 0.32 ppm", "result": 0, "unit": "%"}
    ]},
    {"compound": "N#Cc1nn(-c2c(Cl)cc(C(F)(F)F)cc2Cl)c(N)c1[S+]([O-])C(F)(F)F", "note": "(stereo not drawn) [Fipronil]", "values": [
      {"measurement": "Efficacy in % after 6d", "setting": "[4]; 16 ppm", "result": 0, "unit": "%"}
    ]},
    {"compound": "Spinosad", "values": [
      {"measurement": "Efficacy in % after 2d", "setting": "[6]; 80 ppm", "result": 50, "unit": "%"},
      {"measurement": "Efficacy in % after 6d", "setting": "[4]; 0.64 ppm", "result": 0, "unit": "%"}
    ]},
    {"compound": "CNC(=O)c1cc(C#N)cc(C)c1NC(=O)c1cc(Br)nn1-c1ncccc1Cl", "note": "[Cyantraniliprole]", "values": [
      {"measurement": "Efficacy in % after 6d", "setting": "[1]; 80 ppm", "result": 0, "unit": "%"},
      {"measurement": "Efficacy in % after 6d", "setting": "[5]; 0.64 ppm", "result": 0, "unit": "%"},
      {"measurement": "Efficacy in % after 6d", "setting": "[5]; 3.2 ppm", "result": 0, "unit": "%"},
      {"measurement": "Efficacy in % after 1d", "setting": "[5]; 16 ppm", "result": 0, "unit": "%"},
      {"measurement": "Efficacy in % after 6d", "setting": "[6]; 0.64 ppm", "result": 0, "unit": "%"}
    ]},
    {"compound": "CNC(=O)c1cc(C#N)cc(C)c1NC(=O)c1cc(Cn2nnc(C(F)(F)F)n2)nn1-c1ncccc1Cl", "note": "[1-(3-chloropyridin-2-yl)-N-[4-cyano-2-methyl-6-(methylcarbamoyl)phenyl]-3-{[5-(trifluoromethyl)-2H-tetrazol-2-yl]methyl}-1H-pyrazole-5-carboxamide]", "values": [
      {"measurement": "Efficacy in % after 6d", "setting": "[6]; 0.128 ppm", "result": 0, "unit": "%"},
      {"measurement": "Efficacy in % after 2d", "setting": "[6]; 0.64 ppm", "result": 50, "unit": "%"},
      {"measurement": "Efficacy in % after 6d", "setting": "[4]; 0.64 ppm", "result": 33, "unit": "%"}
    ]},
    {"compound": "CC(c1ccc(C(F)(F)F)nc1)S(C)(=O)=NC#N", "note": "(stereo not drawn) [Sulfoxaflor]", "values": [
      {"measurement": "Efficacy in % after 1d", "setting": "[5]; 0.64 ppm", "result": 0, "unit": "%"}
    ]},
    {"compound": "Cc1c(F)c(F)c(COC(=O)[C@@H]2[C@H](/C=C(\\Cl)C(F)(F)F)C2(C)C)c(F)c1F", "note": "(racemic) [Tefluthrin]", "values": [
      {"measurement": "Efficacy in % after 2d", "setting": "[6]; 40 ppm", "result": 0, "unit": "%"}
    ]},
    {"compound": "CNC(=O)Oc1cc(C)c(SC)c(C)c1", "note": "[Methiocarb]", "values": [
      {"measurement": "Efficacy in % after 6d", "setting": "[5]; 2000 ppm", "result": 0, "unit": "%"}
    ]},
    {"compound": "CNC(=O)c1cc(Cl)cc(C)c1NC(=O)c1cc(Br)nn1-c1ncccc1Cl", "note": "[Chlorantraniliprole]", "values": [
      {"measurement": "Efficacy in % after 6d", "setting": "[1]; 16 ppm", "result": 0, "unit": "%"},
      {"measurement": "Efficacy in % after 1d", "setting": "[5]; 3.2 ppm", "result": 0, "unit": "%"}
    ]},
    {"compound": "CS/C(C)=N\\OC(=O)N(C)SN(C)C(=O)O/N=C(\\C)SC", "note": "[Thiodicarb]", "values": [
      {"measurement": "Efficacy in % after 2d", "setting": "[4]; 40 ppm", "result": 0, "unit": "%"}
    ]}
  ]
}
